Results on 27 compounds are retold here after patent publication US7560468B2, “Substituted 1,4,8-triazaspiro[4,5]decan-2-one compounds” (Gruenenthal GmbH, priority 2004, dated 2009).

For assay [1], the system named is batrachotoxin (BTX) binding site of the sodium channel. In words: Affinity to the batrachotoxin (BTX) binding site of the sodium channel. As to conditions: rat cerebrocortex synaptosomes, [3H]-batrachotoxinin A20 α-benzoate 10 nM; test concentration not given.
The subject of a further assay is NA transporter. In words: Inhibition of noradrenalin uptake in synaptosomes. It counts as biochemical.
In a further assay the target is T1, 5-HT transporter (Rattus norvegicus, UniProt P31652).
T1 construct: from tissue; host or cells: rat brain synaptosomes (marrow/medulla and pons), P2 fraction
The assay is described as follows: Inhibition of 5-HT uptake in synaptosomes. It is filed as biochemical. To be noted: rat, 1 μM.

The structures appear in SMILES notation.

T1 sequence (P31652 whole entry): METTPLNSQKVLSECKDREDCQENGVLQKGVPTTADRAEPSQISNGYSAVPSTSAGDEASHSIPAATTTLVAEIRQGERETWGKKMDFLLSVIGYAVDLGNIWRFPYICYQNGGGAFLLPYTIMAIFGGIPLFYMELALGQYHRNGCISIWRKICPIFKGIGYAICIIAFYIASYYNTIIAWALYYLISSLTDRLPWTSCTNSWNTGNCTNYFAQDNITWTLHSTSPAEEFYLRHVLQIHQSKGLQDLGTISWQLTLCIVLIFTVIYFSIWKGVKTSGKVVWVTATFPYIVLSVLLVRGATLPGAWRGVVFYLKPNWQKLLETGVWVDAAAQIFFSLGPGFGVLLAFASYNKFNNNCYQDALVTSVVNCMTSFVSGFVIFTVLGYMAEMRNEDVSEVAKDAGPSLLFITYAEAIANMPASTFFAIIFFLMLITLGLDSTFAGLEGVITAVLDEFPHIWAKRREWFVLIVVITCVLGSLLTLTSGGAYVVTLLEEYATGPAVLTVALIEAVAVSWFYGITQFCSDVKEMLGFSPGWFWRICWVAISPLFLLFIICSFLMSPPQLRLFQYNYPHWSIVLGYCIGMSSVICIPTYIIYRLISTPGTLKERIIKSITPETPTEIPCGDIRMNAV

Regarding `COc1cc(C)c(S(=O)(=O)N2CCC3(CC2)NC(=O)C(Cc2ccccc2)N3)c(C)c1C` (stereo not drawn) [Example 4, 3-Benzyl-8-(4-methoxy-2,3,6-trimethylbenzolsulfonyl)-1,4,8-triazaspiro[4,5]decan-2-one], the “BTX Inhibition” value in assay [1] is reported as 53. The “Uptake (NA), rat, 10 μM, % inhibition” value with NA transporter is 34%.
On to `O=C1NC2(CCN(S(=O)(=O)c3ccccc3F)CC2)NC1Cc1ccccc1` (stereo not drawn) [Example 7, 3-Benzyl-8-(2-fluorobenzolsulfonyl)-1,4,8-triazaspiro[4,5]decan-2-one], for which the “Uptake_5-HT, rat, 1 μM, % inhibition” value on 5-HT transporter was found to be 54%. The “Uptake (NA), rat, 10 μM, % inhibition” value with NA transporter came to 32%.
In the same order, the values of `CSCCC1NC2(CCN(S(=O)(=O)c3ccc(C(C)=O)cc3)CC2)N(Cc2cccc(C#N)c2)C1=O` (stereo not drawn) [Example 10, 3-[8-(4-Acetylbenzolsulfonyl)-3-(2-methylsulfanylethyl)-2-oxo-1,4,8-triazaspiro[4,5]dec-1-ylmethyl]-benzonitrile] are 35% and 39%.
Turning to `CCOC(=O)CC(C)NC(=S)N1CCC2(CC1)NC(Cc1ccccc1)C(=O)N2C` (stereo not drawn) [Example 131, Ethyl 3-[(3-benzyl-1-methyl-2-oxo-1,4,8-triazaspiro[4,5]decan-8-carbothioyl)amino]-butyrate], the “BTX Inhibition” value in assay [1] is recorded as 42. For the same compound, the “Uptake (NA), rat, 10 μM, % inhibition” value in the assay with NA transporter was found to be 42%.
Consider `COC(=O)c1ccc(CN2C(=O)C(C(C)C)NC23CCN(C(=S)NCC2CCCO2)CC3)cc1` (stereo not drawn) [Example 137, Methyl 4-{3-isopropyl-2-oxo-8-[(tetrahydrofuran-2-ylmethyl)thiocarbamoyl]-1,4,8-triazaspiro[4,5]dec-1-ylmethyl}-benzoate], for which the “BTX Inhibition” value in assay [1] is on record as 37. Further, the “Uptake (NA), rat, 10 μM, % inhibition” value in the assay on NA transporter is recorded as 30%.
In the same order, the values of `CCCCN1C(=O)C(C(C)C)NC12CCN(C(=S)Nc1c(F)c(F)c(F)c(F)c1F)CC2` (stereo not drawn) [Example 152, 1-Butyl-3-isopropyl-2-oxo-1,4,8-triazaspiro[4,5]decan-8-thiocarboxylic acid pentafluorobenzolamide-amide] are 39 and 37%.
In the same order, the values of `COC(=O)c1ccccc1NC(=S)N1CCC2(CC1)NC(CCSC)C(=O)N2Cc1ccccc1C#N` (stereo not drawn) [Example 153, Methyl 2-{[1-(2-cyanobenzyl)-3-(2-methylsulfanylethyl)-2-oxo-1,4,8-triazaspiro[4,5]decan-8-carbothioyl]-amino}-benzoate] are 53 and 30%.
As to `COc1ccccc1NC(=S)N1CCC2(CC1)NC(C(C)C)C(=O)N2Cc1ccccc1` (stereo not drawn) [Example 155, 1-Benzyl-3-isopropyl-2-oxo-1,4,8-triazaspiro[4,5]decan-8-thiocarboxylic acid (2-methoxy-benzol)amide], the “BTX Inhibition” value in assay [1] was found to be 32. The “Uptake (NA), rat, 10 μM, % inhibition” value in the assay with NA transporter was 52%.
In the same order, the values of `CC(C)C1NC2(CCN(C(=S)Nc3cc(F)ccc3F)CC2)N(Cc2ccccc2)C1=O` (stereo not drawn) [Example 157, 1-Benzyl-3-isopropyl-2-oxo-1,4,8-triazaspiro[4,5]decan-8-thiocarboxylic acid (2,5-difluorobenzol)amide] are 39 and 38%.
In the same order, the values of `CCCCN1C(=O)C(CCSC)NC12CCN(C(=S)NCc1ccccc1)CC2` (stereo not drawn) [Example 160, 1-Butyl-3-(2-methylsulfanylethyl)-2-oxo-1,4,8-triazaspiro[4,5]decan-8-thiocarboxylic acid benzylamide] are 63 and 42%.
For `CSCCC1NC2(CCN(C(=S)Nc3cccc(C)c3)CC2)N(Cc2ccccc2C#N)C1=O` (stereo not drawn) [Example 161, 1-(2-Cyanobenzyl)-3-(2-methylsulfanylethyl)-2-oxo-1,4,8-triazaspiro[4,5]decan-8-thiocarboxylic acid m-tolylamide], the “BTX Inhibition” value in assay [1] was determined as 53. The “Uptake (NA), rat, 10 μM, % inhibition” value with NA transporter is on record as 33%.
In the same order, the values of `COC(=O)c1ccc(CN2C(=O)C(C(C)C)NC23CCN(C(=S)Nc2c(F)c(F)c(F)c(F)c2F)CC3)cc1` (stereo not drawn) [Example 164, Methyl 4-(3-isopropyl-2-oxo-8-pentafluorobenzolthiocarbamoyl-1,4,8-triazaspiro[4,5]dec-1-ylmethyl)benzoate] are 42 and 58%.
The matching figures for `CSCCC1NC2(CCN(C(=S)NCC3CCCO3)CC2)N(Cc2ccc(F)cc2)C1=O` (stereo not drawn) [Example 168, 1-(4-Fluorobenzyl)-3-(2-methylsulfanylethyl)-2-oxo-1,4,8-triazaspiro[4,5]decan-8-thiocarboxylic acid (tetrahydrofuran-2-ylmethyl)amide]: 38 and 35%.
As to `CC(C)CC1NC2(CCN(C(=S)Nc3cc(C(F)(F)F)cc(C(F)(F)F)c3)CC2)N(Cc2ccccc2C#N)C1=O` (stereo not drawn) [Example 169, 1-(2-Cyanobenzyl)-3-isobutyl-2-oxo-1,4,8-triazaspiro[4,5]decan-8-thiocarboxylic acid (3,5-bis-trifluoromethylbenzol)amide], the “BTX Inhibition” value in assay [1] came out at 91. For the same compound, the “Uptake (NA), rat, 10 μM, % inhibition” value with NA transporter is given as 44%.
In the same order, the values of `CC(C)CC1NC2(CCN(C(=S)NCc3ccccc3)CC2)N(Cc2ccccc2C#N)C1=O` (stereo not drawn) [Example 170, 1-(2-Cyanobenzyl)-3-isobutyl-2-oxo-1,4,8-triazaspiro[4,5]decan-8-thiocarboxylic acid benzylamide] are 53 and 46%.
The matching figures for `CSCCC1NC2(CCN(C(=S)Nc3ccc(Cl)cc3)CC2)N(Cc2cccc(C#N)c2)C1=O` (stereo not drawn) [Example 172, 1-(3-Cyanobenzyl)-3-(2-methylsulfanylethyl)-2-oxo-1,4,8-triazaspiro[4,5]decan-8-thiocarboxylic acid (4-chlorobenzol)amide]: 59 and 47%.
The matching figures for `CCCCN1C(=O)C(CCSC)NC12CCN(C(=S)Nc1c(F)c(F)c(F)c(F)c1F)CC2` (stereo not drawn) [Example 173, 1-Butyl-3-(2-methylsulfanylethyl)-2-oxo-1,4,8-triazaspiro[4,5]decan-8-thiocarboxylic acid pentafluorobenzolamide-amide]: 40 and 45%.
Turning to `CN1C(=O)C(Cc2ccccc2)NC12CCN(C(=S)NCc1ccc(Cl)cc1)CC2` (stereo not drawn) [Example 175, 3-Benzyl-1-methyl-2-oxo-1,4,8-triazaspiro[4,5]decan-8-thiocarboxylic acid 4-chlorobenzylamide], the “BTX Inhibition” value in assay [1] came to 63. The “Uptake (NA), rat, 10 μM, % inhibition” value in the assay on NA transporter was 32%.
The matching figures for `CSCCC1NC2(CCN(C(=S)NC(C)c3ccccc3)CC2)N(Cc2cccc(C#N)c2)C1=O` (stereo not drawn) [Example 181, 1-(3-Cyanobenzyl)-3-(2-methylsulfanylethyl)-2-oxo-1,4,8-triazaspiro[4,5]decan-8-thiocarboxylic acid (1-benzol-ethyl)amide]: 57 and 40%.
Turning to `COc1ccccc1NC(=S)N1CCC2(CC1)NC(CCSC)C(=O)N2Cc1ccccc1C#N` (stereo not drawn) [Example 183, 1-(2-Cyanobenzyl)-3-(2-methylsulfanylethyl)-2-oxo-1,4,8-triazaspiro[4,5]decan-8-thiocarboxylic acid (2-methoxy-benzol)amide], the “BTX Inhibition” value in assay [1] is given as 37. The “Uptake (NA), rat, 10 μM, % inhibition” value in the assay with NA transporter worked out at 29%.
For the compound `COc1ccccc1NC(=S)N1CCC2(CC1)NC(CCSC)C(=O)N2Cc1cccc(C#N)c1` (stereo not drawn) [Example 184, 1-(3-Cyanobenzyl)-3-(2-methylsulfanylethyl)-2-oxo-1,4,8-triazaspiro[4,5]decan-8-thiocarboxylic acid (2-methoxy-benzol)amide], the “BTX Inhibition” value in assay [1] amounted to 36. The “Uptake (NA), rat, 10 μM, % inhibition” value with NA transporter turned out to be 32%.
Turning to `CSCCC1NC2(CCN(C(=S)NCc3ccc(Cl)cc3)CC2)N(Cc2ccccc2C#N)C1=O` (stereo not drawn) [Example 193, 1-(2-Cyanobenzyl)-3-(2-methylsulfanylethyl)-2-oxo-1,4,8-triazaspiro[4,5]decan-8-thiocarboxylic acid 4-chlorobenzylamide], the “BTX Inhibition” value in assay [1] turned out to be 72. Further, the “Uptake (NA), rat, 10 μM, % inhibition” value with NA transporter was 32%.
On to `C#CCN1C(=O)C(CC(C)C)NC12CCN(C(=S)Nc1cc(Cl)cc(Cl)c1)CC2` (stereo not drawn) [Example 195, 3-Isobutyl-2-oxo-1-prop-2-ynyl-1,4,8-triazaspiro[4,5]decan-8-thiocarboxylic acid (3,5-dichlorobenzol)amide], for which the “BTX Inhibition” value in assay [1] is 77. In addition, the “Uptake (NA), rat, 10 μM, % inhibition” value with NA transporter was found to be 30%.
The matching figures for `CCOC(=O)CN1C(=O)C(CCSC)NC12CCN(C(=O)Nc1ccccc1)CC2` (stereo not drawn) [Example 203, Ethyl[3-(2-methylsulfanylethyl)-2-oxo-8-benzolcarbamoyl-1,4,8-triazaspiro[4,5]dec-1-yl]-acetate]: 32 and 40%.
In the same order, the values of `CC(C)CC1NC2(CCN(C(=O)NCc3ccc(Cl)c(Cl)c3)CC2)N(Cc2ccccc2C#N)C1=O` (stereo not drawn) [Example 217, 1-(2-Cyanobenzyl)-3-isobutyl-2-oxo-1,4,8-triazaspiro[4,5]decan-8-carboxylic acid 3,4-dichlorobenzylamide] are 78 and 39%.
In the same order, the values of `CSCCC1NC2(CCN(C(=O)Nc3ccc(OC(F)(F)F)cc3)CC2)N(C)C1=O` (stereo not drawn) [Example 222, 1-Methyl-3-(2-methylsulfanylethyl)-2-oxo-1,4,8-triazaspiro[4,5]decan-8-carboxylic acid (4-trifluoromethoxy-benzol)amide] are 48 and 30%.
For `CSCCC1NC2(CCN(C(=O)NCc3ccc(Cl)c(Cl)c3)CC2)N(Cc2ccccc2C#N)C1=O` (stereo not drawn) [Example 229, 1-(2-Cyanobenzyl)-3-(2-methylsulfanylethyl)-2-oxo-1,4,8-triazaspiro[4,5]decan-8-carboxylic acid 3,4-dichlorobenzylamide], the “BTX Inhibition” value in assay [1] is 69. Further, the “Uptake (NA), rat, 10 μM, % inhibition” value in the assay on NA transporter turned out to be 40%.
